Experimental data published in the supplement of paper PMC10307832.

Legend:
Test in all cases: relative viability (nuclei count vs DMSO), 5 days (fraction); higher = more cells survive
[1] = compound: COc1cc(Nc2ncc3c(n2)-c2ccc(Cl)cc2C(c2c(F)cccc2OC)=NC3)ccc1C(=O)O [Alisertib] + CC(C)C[C@H](NC(=O)[C@H](Cc1ccccc1)NC(=O)c1cnccn1)B(O)O [Bortezomib] (partner 0.002 µM)
In short: (§1)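 Lung cancer cell lines were seeded in 1536-well plates and dosed by pin tool the next day, with either a single drug or a fixed anchor-drug dose combined with five library-drug doses (not always all listed) spaced in √10 steps. Five days later, one step fixed the cells and stained their nuclei (final 0.05% Triton X-100, 1% formaldehyde, 1 ug/ml Hoechst), and nuclei were counted on 4× images. Relative viability is the nuclei count in treated wells divided by the count in vehicle wells, and each value is the median of duplicate plates.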

[2] = compound: COc1cc(Nc2ncc3c(n2)-c2ccc(Cl)cc2C(c2c(F)cccc2OC)=NC3)ccc1C(=O)O [Alisertib] + CC(=O)c1c(C)c2cnc(Nc3ccc(N4CCNCC4)cn3)nc2n(C2CCCC2)c1=O [Palbociclib] (partner 0.5 µM)
In short: as §1

[3] = compound: COc1cc(Nc2ncc3c(n2)-c2ccc(Cl)cc2C(c2c(F)cccc2OC)=NC3)ccc1C(=O)O [Alisertib] + COc1cc2c(Oc3ccc(NC(=O)C4(C(=O)Nc5ccc(F)cc5)CC4)cc3F)ccnc2cc1OCCCN1CCOCC1 [Foretinib] (partner 0.25 µM)
In short: as §1

[4] = compound: COc1cc(Nc2ncc3c(n2)-c2ccc(Cl)cc2C(c2c(F)cccc2OC)=NC3)ccc1C(=O)O [Alisertib] + CS(=O)(=O)N1CCN(Cc2cc3nc(-c4cccc5[nH]ncc45)nc(N4CCOCC4)c3s2)CC1 [Pictilisib] (partner 1 µM)
In short: as §1

Row | Cell Line | relative viability ([1]; first compound 0.005 µM) | relative viability ([1]; first compound 0.01581 µM) | relative viability ([1]; first compound 0.05 µM) | relative viability ([1]; first compound 0.1581 µM) | relative viability ([1]; first compound 0.5 µM) | relative viability ([2]; first compound 0.005 µM) | relative viability ([2]; first compound 0.01581 µM) | relative viability ([2]; first compound 0.05 µM) | relative viability ([2]; first compound 0.1581 µM) | relative viability ([2]; first compound 0.5 µM) | relative viability ([3]; first compound 0.005 µM) | relative viability ([3]; first compound 0.01581 µM) | relative viability ([3]; first compound 0.05 µM) | relative viability ([3]; first compound 0.1581 µM) | relative viability ([3]; first compound 0.5 µM) | relative viability ([4]; first compound 0.005 µM) | relative viability ([4]; first compound 0.01581 µM) | relative viability ([4]; first compound 0.05 µM) | relative viability ([4]; first compound 0.1581 µM) | relative viability ([4]; first compound 0.5 µM)
1 | HCC-78 | 0.522 | 0.272 | 0.24 | 0.19 | 0.175 | 0.5 | 0.458 | 0.357 | 0.407 | 0.307 | 0.548 | 0.438 | 0.329 | 0.238 | 0.275 | 0.172 | 0.253 | 0.168 | 0.145 | 0.0967
2 | HCC-366 | 1.04 | 0.345 | 0.0201 | 0.0154 | 0.0255 | 0.361 | 0.322 | 0.0243 | 0.0284 | 0.039 | 0.975 | 0.156 | 0.035 | 0.054 | 0.055 | 0.0828 | 0.135 | 0.0183 | 0.0243 | 0.0203
3 | HCC-827 | 1.01 | 1.06 | 0.848 | 0.402 | 0.401 | 0.459 | 0.537 | 0.379 | 0.27 | 0.207 | 1.05 | 0.726 | 0.333 | 0.276 | 0.237 | 0.869 | 0.978 | 0.515 | 0.381 | 0.361
4 | HOP-62 | 0.459 | 0.703 | 0.82 | 0.195 | 0.117 | 0.431 | 0.489 | 0.233 | 0.188 | 0.14 | 1.08 | 0.876 | 0.285 | 0.256 | 0.205 | 0.579 | 0.757 | 0.373 | 0.149 | 0.103
5 | IA-LM | 0.635 | 0.578 | 0.465 | 0.195 | 0.0832 | – | – | – | – | – | 1.11 | 1.09 | 0.737 | 0.214 | 0.0846 | 0.332 | 0.25 | 0.201 | 0.142 | 0.0927
6 | LC-2-ad | 0.907 | 0.369 | 0.264 | 0.144 | 0.112 | 0.413 | 0.459 | 0.282 | 0.276 | 0.21 | 0.803 | 0.597 | 0.503 | 0.351 | 0.285 | 0.116 | 0.251 | 0.107 | 0.108 | 0.105
7 | LCLC-97TM1 | 0.51 | 0.725 | 0.108 | 0.0791 | 0.0549 | 0.222 | 0.215 | 0.127 | 0.0905 | 0.0969 | 0.91 | 0.707 | 0.379 | 0.253 | 0.182 | 0.223 | 0.167 | 0.135 | 0.108 | 0.0964
8 | LK-2 | – | – | – | – | – | 0.684 | 0.67 | 0.403 | 0.178 | 0.148 | 0.955 | 0.979 | 0.601 | 0.245 | 0.189 | 0.573 | 0.566 | 0.314 | 0.329 | 0.26
9 | NCI-H358 | – | – | – | – | – | 0.111 | 0.117 | 0.104 | 0.0711 | 0.0985 | 0.608 | 0.485 | 0.181 | 0.111 | 0.0732 | 0.269 | 0.327 | 0.217 | 0.154 | 0.14
10 | NCI-H522 | – | – | – | – | – | 0.877 | 1.14 | 0.975 | 0.76 | 0.519 | – | – | – | – | – | – | – | – | – | –
11 | NCI-H596 | – | 0.862 | 1.83 | 0.854 | 0.43 | – | – | – | – | – | 0.87 | 0.804 | 0.762 | 0.175 | 0.395 | – | 0.412 | 0.433 | 0.214 | 0.242
12 | NCI-H1395 | – | – | – | – | – | 0.603 | 0.6 | 0.597 | 0.44 | 0.388 | 0.895 | 0.916 | 0.696 | 0.561 | 0.38 | 0.566 | 0.517 | 0.597 | 0.492 | 0.377
13 | NCI-H1563 | 0.835 | 0.817 | 0.833 | 0.858 | 0.604 | – | – | – | – | – | 0.908 | 0.833 | 0.846 | 0.818 | 0.607 | 0.646 | 0.608 | 0.606 | 0.717 | 0.296
14 | NCI-H1648 | – | – | – | – | – | – | 0.265 | 0.22 | 0.258 | 0.239 | – | – | – | – | – | – | – | – | – | –
15 | NCI-H1703 | 0.337 | 0.287 | 0.134 | 0.147 | 0.102 | – | – | – | – | – | 0.313 | 0.379 | 0.29 | 0.248 | 0.201 | 0.246 | 0.22 | 0.182 | 0.163 | 0.155
16 | NCI-H1792 | 0.935 | 0.871 | 0.555 | 0.21 | 0.0867 | 0.697 | 0.522 | 0.423 | 0.343 | 0.169 | – | – | – | – | – | 0.304 | 0.223 | 0.0811 | 0.0732 | 0.0644
17 | NCI-H1793 | – | – | – | – | – | 0.332 | 0.3 | 0.273 | 0.215 | 0.234 | 0.715 | 0.286 | 0.232 | 0.194 | 0.138 | 0.327 | 0.297 | 0.23 | 0.18 | 0.208
18 | NCI-H1944 | – | – | – | – | – | 0.33 | 0.357 | 0.27 | 0.187 | 0.159 | 0.845 | 0.818 | 0.633 | 0.386 | 0.227 | 0.327 | 0.35 | 0.351 | 0.21 | 0.205
19 | NCI-H2170 | – | – | – | – | – | 0.366 | 0.365 | 0.243 | 0.22 | 0.155 | 0.715 | 0.972 | 0.605 | 0.563 | 0.181 | 0.276 | 0.303 | 0.282 | 0.19 | 0.192
20 | NCI-H2342 | – | – | – | – | – | 0.539 | 0.533 | 0.509 | 0.348 | 0.415 | 1.04 | 1.09 | 0.652 | 0.464 | 0.363 | – | – | – | – | –
21 | SK-MES-1 | – | – | – | – | – | 0.316 | 0.346 | 0.29 | 0.226 | 0.161 | 0.779 | 0.928 | 0.74 | 0.233 | 0.189 | 0.326 | 0.333 | 0.212 | 0.147 | 0.123
22 | SW 900 | – | – | – | – | – | 0.461 | 0.475 | 0.303 | 0.245 | 0.227 | 0.68 | 0.832 | 0.598 | 0.194 | 0.186 | – | – | – | – | –
